Laboratory results published in ChEMBL document CHEMBL1148733, “Novel N7- and N1-substituted cGMP derivatives are potent activators of cyclic nucleotide-gated channels” (J Med Chem, 2007).

What was measured:
[1] = system: HEK293; conditions: Homo sapiens
Description: Activation of olfactory CNG A2A41b channel expressed in HEK293 cells assessed as effect on half maximal current

[2] = system: Oocyte; assay: Activation of retinal rod […] CNG A1B1 channel expressed in Xenopus oocytes assessed as effect on half maximal current; format: cell-based; conditions: Homo sapiens

## CCCC(=O)O[C@@H]1[C@@H]2OP(=O)(O)OC[C@H]2O[C@H]1n1cnc2c(=O)[nH]c(N)nc21
[1]
  K1/2: 88 µM

## Nc1ncnc2c1nc(Sc1ccc(Cl)cc1)n2[C@@H]1O[C@@H]2COP(=O)(O)O[C@H]2[C@H]1O
[1]
  K1/2: 0.55 µM

## Nc1nc2c(nc(Sc3ccc(Cl)cc3)n2[C@@H]2O[C@@H]3COP(=O)(O)O[C@H]3[C@H]2O)c(=O)[nH]1
[2]
  K1/2: 1 µM
[1]
  K1/2: 0.073 µM

## CS(=O)(=O)CCn1c(=S)n([C@@H]2O[C@@H]3COP(=O)(O)O[C@H]3[C@H]2O)c2nc(N)[nH]c(=O)c21
[1]
  K1/2: 0.11 µM

## Nc1nc2c(ncn2[C@@H]2O[C@@H]3COP(=O)(O)O[C@H]3[C@H]2O)c(=O)[nH]1
[2]
  K1/2: 41 µM
[1]
  K1/2: 1.1 µM

## Nc1nc2c(nc(SCCS(=O)(=O)c3ccccc3)n2[C@@H]2O[C@@H]3COP(=O)(O)O[C@H]3[C@H]2O)c(=O)[nH]1
[1]
  K1/2: 0.21 µM

## Nc1nc2c([nH]c(=S)n2[C@@H]2O[C@@H]3COP(=O)(O)O[C@H]3[C@H]2O)c(=O)[nH]1
[2]
  K1/2: 14 µM
[1]
  K1/2: 0.18 µM

## Nc1nc2c(nc(Sc3ccc(Cl)cc3)n2[C@@H]2O[C@@H]3COP(=O)(O)O[C@H]3[C@H]2O)c(=O)n1CCS(=O)(=O)c1ccccc1
[2]
  K1/2: 12 µM
[1]
  K1/2: 0.38 µM

## CO[C@@H]1[C@@H]2OP(=O)(O)OC[C@H]2O[C@H]1n1cnc2c(=O)[nH]c(N)nc21
[1]
  K1/2: 35 µM

## CO[C@@H]1[C@@H]2OP(=O)(O)OC[C@H]2O[C@H]1n1c(Sc2ccc(Cl)cc2)nc2c(N)ncnc21
[1]
  K1/2: 22 µM

## CS(=O)(=O)CCSc1nc2c(=O)[nH]c(N)nc2n1[C@@H]1O[C@@H]2COP(=O)(O)O[C@H]2[C@H]1O
[1]
  K1/2: 0.37 µM

## Nc1nc2c(c(=O)[nH]1)n(CCS(=O)(=O)c1ccccc1)c(=S)n2[C@@H]1O[C@@H]2COP(=O)(O)O[C@H]2[C@H]1O
[2]
  K1/2: 4.1 µM
[1]
  K1/2: 0.082 µM

## CO[C@@H]1[C@@H]2OP(=O)(O)OC[C@H]2O[C@H]1n1cnc2c(=O)n(C)c(N)nc21
[1]
  K1/2: 290 µM

## CCCC(=O)Nc1nc2c(ncn2[C@@H]2O[C@@H]3COP(=O)(O)O[C@H]3[C@H]2O)c(=O)[nH]1
[1]
  K1/2: 22 µM

## Nc1nc2c(c(=O)[nH]1)[n+]1c(n2[C@@H]2O[C@@H]3COP(=O)(O)O[C@H]3[C@H]2O)SCCC1
[1]
  K1/2: 10 µM
